Source: ChEMBL document CHEMBL5550109, “Synergistic therapeutics: Co-targeting histone deacetylases and ribonucleotide reductase for enhanced cancer treatment” (Eur J Med Chem, 2024)

Target: T1, Ribonucleoside-diphosphate reductase subunit M2 (Homo sapiens, UniProt P31350)
T1 sequence (P31350 whole entry): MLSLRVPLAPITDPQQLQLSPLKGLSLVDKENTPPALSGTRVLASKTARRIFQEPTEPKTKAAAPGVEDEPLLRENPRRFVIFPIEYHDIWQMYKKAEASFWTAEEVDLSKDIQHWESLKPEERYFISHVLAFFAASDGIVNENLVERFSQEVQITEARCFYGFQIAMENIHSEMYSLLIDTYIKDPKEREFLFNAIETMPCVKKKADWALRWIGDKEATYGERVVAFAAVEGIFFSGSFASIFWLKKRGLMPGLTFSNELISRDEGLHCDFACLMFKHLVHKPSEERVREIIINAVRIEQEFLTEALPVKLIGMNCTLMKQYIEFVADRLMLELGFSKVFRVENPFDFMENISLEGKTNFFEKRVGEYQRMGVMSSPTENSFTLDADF
Assay: Inhibition of human recombinant RRM2
Conditions: not given

IC50	Structure (SMILES)
601 µM	NC(=O)NO [HYDROXYUREA]

System: HCT-116
Assay: Growth inhibition of human HCT-116 cells
Format: functional
Conditions: pooled result: one value given for 3 cell lines, strains, targets or settings

Structure (SMILES)	GI50
C/C(=N\Nc1nc(C)c(C(=O)NO)s1)c1ccc(Cl)cc1	> 50 µM
Cc1nc(N/N=C/c2ccc([N+](=O)[O-])cc2)sc1C(=O)NO	40.7 µM
COc1cccc(/C=N/Nc2nc(C)c(C(=O)NO)s2)c1	> 50 µM
C/C(=N\Nc1nc(C)c(C(=O)NO)s1)c1ccccc1	> 50 µM

Results, then the compound that gave them:

GI50	Structure (SMILES)
36.7 µM	Cc1nc(N/N=C/c2ccccc2O)sc1C(=O)NO
23.9 µM	Cc1nc(N/N=C/c2ccccc2)sc1C(=O)NO
20.8 µM	Cc1nc(N/N=C/c2ccc(N(C)C)cc2)sc1C(=O)NO
21.6 µM	Cc1nc(N/N=C/c2ccc(Cl)cc2)sc1C(=O)NO
32.8 µM	COc1ccc(/C=N/Nc2nc(C)c(C(=O)NO)s2)cc1
